Reference: ChEMBL document CHEMBL1130134, “Synthesis of carboranes containing an azulene framework and in vitro evaluation as boron carriers” (J Med Chem, 1997)

Assays:
B16 [1] = assay: Compound was tested for the in vitro growth inhibition of B-16 melanoma cells after incubation for 3 days (cytotoxicity), the dose that failed to inhibit cell growth by more than 50% was determined; format: functional, cell-based; conditions: Mus musculus, B16, 72 h
B16 [2] = assay: Boron incorporation into B-16 melanoma cells(1000000 cells) after 24 hours incubation (10.8 ug of B/mL).; format: functional, Mus musculus

## CC(C)(c1ccc(O)cc1)c1ccc(O)cc1 [BISPHENOL A]
B16 [1]
  IC50: 8.6 mM
B16 [2]
  B incorporation: 0.31 µg
